One test relates to HepG2. Briefly: Hepatoprotective activity against acetaminophen-induced cell damage in human HepG2 cells assessed as increase in cell survival at 10 uM incubated for 24 hrs by CCK-8 assay relative to control. As to conditions: read-out: Survival. Format: functional. For orientation: Formazan colour is commonly taken as a measure of viable cells.
Test [1] relates to RAW264.7. In words: Antiinflammatory activity in LPS-induced mouse RAW264.7 cells assessed as inhibition of NO production at 10 to 40 uM incubated for 24 hrs by Griess reagent based assay. In kind it is functional, cell-based. Particulars: dose 10-40 µM. (In general: The Griess reaction detects nitrite, a stable product of nitric oxide.)
Test [2] concerns RAW264.7. In words: Antiinflammatory activity in LPS-induced mouse RAW264.7 cells assessed as reduction in IL-1beta mRNA expression incubated for 24 hrs by qPCR analysis. Format: functional, cell-based. Particulars: dose 10-40 µM. Background: Real-time PCR tracks product formation cycle by cycle.
Test [3] relates to RAW264.7. In words: Antiinflammatory activity in LPS-induced mouse RAW264.7 cells assessed as reduction in IL-6 mRNA expression incubated for 24 hrs by qPCR analysis. In kind it is functional, cell-based. As to conditions: dose 10-40 µM.
Test [4] relates to RAW264.7. In words: Antiinflammatory activity in LPS-induced mouse RAW264.7 cells assessed as reduction in IL-1beta production at 10 to 40 uM incubated for 24 hrs by ELISA. In kind it is functional, cell-based. Particulars: dose 10-40 µM.
Test [5] deals with RAW264.7. In words: Antiinflammatory activity in LPS-induced mouse RAW264.7 cells assessed as reduction in IL-6 production at 10 to 40 uM incubated for 24 hrs by ELISA. In kind it is functional, cell-based. Particulars: dose 10-40 µM.

Among the data in ChEMBL document CHEMBL5385955, “Minor Hydroxylated Triterpenoids Produced in Engineered Yeast by the Enzymes OSC and CYP716s from the Plant Enkianthus chinensis and Their Anti-Inflammatory and Hepatoprotective Activities” (2024) are viability and Activity values, retold here.

The source made the active and inactive calls. The rule behind the calls is not given here.

Take `C[C@H]1[C@H](C)CC[C@]2(C)CC[C@]3(C)C(=CC[C@@H]4[C@@]5(C)CC[C@H](O)C(C)(C)[C@@H]5CC[C@]43C)[C@H]12`: the viability at 10 µM with HepG2 amounted to 61%.

For the molecule `COC(=O)c1cc(OC)c2c(c1-c1c(CO)cc(OC)c3c1OCO3)OCO2` [BICYCLOL], the viability at 10 µM in the test with HepG2 amounted to 60%.

`CC1(C)CC[C@]2(C)CC[C@]3(C)C(=CC[C@@H]4[C@@]5(C)CC[C@H](O)C(C)(C)[C@@H]5CC[C@]43C)[C@@H]2C1` [beta-AMYRIN]: the viability at 10 µM in the test on HepG2 was 61%.

With `C[C@H]1[C@H](C)CC[C@]2(CO)CC[C@]3(C)C(=CC[C@@H]4[C@@]5(C)CC[C@H](O)C(C)(C)[C@@H]5CC[C@]43C)[C@H]12` [UVAOL], the viability at 10 µM with HepG2 was 61%.

Take `CC1(C)CC[C@]2(CO)CC[C@]3(C)C(=CC[C@@H]4[C@@]5(C)CC[C@H](O)C(C)(C)[C@@H]5CC[C@]43C)[C@@H]2C1` [ERYTHRODIOL]: the outcome in the test on RAW264.7 [1], with RAW264.7 [4] and in the test on RAW264.7 [5] was Active. Besides, the Activity result in the test on RAW264.7 [2] and in the test with RAW264.7 [3] was “Dose-Dependent Effect” in each case. For the same molecule, the viability at 10 µM with HepG2 was determined as 61%.
